Test results reported in ChEMBL document CHEMBL5120966, “Spicatulides A-G, Phenolic-Monoterpenoid Hybrids from Chloranthus spicatus” (J Nat Prod, 2022).

Legend:
[1] = test system: HepG2; assay: Inhibition of lipogenesis in human HepG2 cells assessed as reduction in sterol synthesis; assay type: functional, cell-based; conditions: dose 12.5-50 µM, DDE = dose-dependent effect
[2] = test system: HepG2; assay: Inhibition of lipogenesis in human HepG2 cells assessed as reduction in fatty acids synthesis; assay type: functional, cell-based; conditions: dose 0.1-1 µM, DDE = dose-dependent effect

SMILES	dose-dependent inhibition (qualitative) [1]	inhibition [2]
COC(=O)[C@H]1c2cc(O)cc(C/C=C(\C)CCC=C(C)C)c2O[C@@]2(C)[C@@H](O)C=C(C(C)C)C[C@@H]12	Dde	
COC(=O)C[C@@]1(C/C=C(\C)CCC=C(C)C)CC(=O)C=C[C@@H]1O	Dde	Dde
COC(=O)Cc1cc(O)cc2c1O[C@@](C)(CCC=C(C)C)C=C2	Dde	
COC(=O)[C@@]1(O)c2cc(O)cc(C/C=C(\C)CCC=C(C)C)c2O[C@@]2(C)C=C[C@H](C(C)C)C[C@@H]12	Dde	
